Laboratory results published in US8816119B2, “Arylamide derivatives having antiandrogenic properties” (Medeia Therapeutics Ltd, priority 2010, dated 2014).
Positions count from the first letter of the chain named.

Experiments:
Assay type in all cases: cell-based
[1] = target: T1, WT AR (Homo sapiens, UniProt P10275); assay: Antagonism in WT AR, AR transactivation reporter gene assay in COS-1 cells, competitive setting with 50 nM testosterone; settings: 18 h
T1 construct: expressed in transfected cells; host or cells: COS-1
T1 sequence (P10275 1-920): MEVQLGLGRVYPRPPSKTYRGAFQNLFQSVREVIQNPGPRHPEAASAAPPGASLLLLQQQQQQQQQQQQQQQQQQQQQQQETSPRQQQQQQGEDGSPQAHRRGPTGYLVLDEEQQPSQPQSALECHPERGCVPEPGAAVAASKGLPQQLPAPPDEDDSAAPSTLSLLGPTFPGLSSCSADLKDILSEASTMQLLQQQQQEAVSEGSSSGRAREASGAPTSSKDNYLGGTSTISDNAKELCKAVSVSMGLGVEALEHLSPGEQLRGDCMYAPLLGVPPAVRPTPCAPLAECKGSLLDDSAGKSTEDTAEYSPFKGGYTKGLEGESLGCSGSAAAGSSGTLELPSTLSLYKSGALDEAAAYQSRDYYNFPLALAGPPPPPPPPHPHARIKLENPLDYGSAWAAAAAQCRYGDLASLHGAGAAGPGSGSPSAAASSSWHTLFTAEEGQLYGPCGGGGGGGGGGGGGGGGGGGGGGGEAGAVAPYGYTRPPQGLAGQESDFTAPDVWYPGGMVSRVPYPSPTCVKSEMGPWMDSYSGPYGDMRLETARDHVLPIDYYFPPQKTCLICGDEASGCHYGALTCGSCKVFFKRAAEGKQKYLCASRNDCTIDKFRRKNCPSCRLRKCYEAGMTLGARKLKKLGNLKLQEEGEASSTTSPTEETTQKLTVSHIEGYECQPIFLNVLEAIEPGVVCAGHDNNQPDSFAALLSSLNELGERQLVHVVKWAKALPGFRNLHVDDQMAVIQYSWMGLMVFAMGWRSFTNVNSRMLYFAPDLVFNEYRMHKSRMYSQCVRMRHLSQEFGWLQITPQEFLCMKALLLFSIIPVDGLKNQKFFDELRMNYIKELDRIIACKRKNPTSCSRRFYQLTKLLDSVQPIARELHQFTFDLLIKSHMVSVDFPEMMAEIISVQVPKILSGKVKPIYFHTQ
Experimental: After 18 h, reporter gene activities (LUC and beta-galactosidase) were determined according to standard methods. The data are expressed as relative LUC activity (luciferase light units divided by beta-galactosidase A420nm to control for transfection efficiency) of a given compound in relation to the activity of a reference test item (=100%).
Antagonism in WT AR of compounds of the present invention was measured in AR transctivation assay in COS-1 cells in competitive setting using testosterone as a reference agonist as described above. […] Relative LUC activity representing AR-dependent transcription obtained by exposure to testosterone alone was set to 100%.

[2] = target: T2, T877A AR (Homo sapiens, UniProt P10275, T878A); assay: Agonism in T877A mutant AR, AR transactivation assay in COS-1 cells, test compounds alone; settings: 10 microM, compound alone
T2 construct: expressed in transfected cells; host or cells: COS-1
T2 sequence (P10275 1-920 T878A): T1 sequence (P10275 1-920) with T878A
Description: The transfected cells were exposed to test compounds alone. Testosterone was used as reference agonist, and its' relative LUC activity representing AR-dependent transcription was set to 100%.

[3] = target: T3, W741L AR (Homo sapiens, UniProt P10275, W742L); assay: Agonism in W741L mutant AR, AR transactivation assay in COS-1 cells, test compounds alone; settings: 10 microM, compound alone
T3 construct: expressed in transfected cells; host or cells: COS-1
T3 sequence (P10275 1-920 W742L): T1 sequence (P10275 1-920) with W742L
Experimental: COS-1 (American Type Culture Collection) were cultured in DMEM supplemented with 10% FBS, penicillin (6.25 U/ml) and streptomycin (6.25 μg/ml) and seeded onto 48-well plates (50 000 cells/well) one day before transfection. Transfection media containing 2.5% charcoal-stripped FBS in DMEM was changed on cells 4 h prior to transfection. Cells were transfected with 50 ng of reporter gene plasmid (pPB-286/+32-LUC; PB, probasin promoter), 5 ng of AR expression plasmid (pSG5-hAR), and 5 ng of pCMVβ (an internal, beta-galactosidase control for transfection efficiency and cell growth) using TranslT-LT1 reagent (Mirus Bio Corporation) according to the manufacturer's instructions. […] After 18 h, reporter gene activities (LUC and beta-galactosidase) were determined according to standard methods. The data are expressed as relative LUC activity (luciferase light units divided by beta-galactosidase A420nm to control for transfection efficiency) of a given compound in relation to the activity of a reference test item (=100%).
Agonism in W741L AR of compounds of the present invention was measured in AR transactivation assay in COS-1 cells as described above except that AR expression vector harboring the W741L mutation was used instead of the WT AR. The transfected cells were exposed to test compounds alone.

Compound | Relative LUC activity (%) indicating residual androgen activity in relation to testosterone (100%) ([1]; 1 microM compound) [%] | Relative LUC activity (%) indicating residual androgen activity in relation to testosterone (100%) ([1]; 10 microM compound) [%] | Relative LUC activity (%) in T877A AR in relation to testosterone (100%) [2] [%] | Relative LUC activity (%) in W741L AR in relation to BIC (100%) [3] [%]
N#Cc1ccc(NC(=O)C(O)(CS(=O)(=O)c2ccc(F)c(F)c2)c2ccc(C(F)(F)F)cc2)cc1Cl (centres unmarked) [Example 10, N-(3-chloro-4-cyanophenyl)-3-[(3,4-difluorobenzene)sulfonyl]-2-hydroxy-2-[4-(trifluoromethyl)phenyl]propanamide] | 23 | 6 | 1 | 3
N#Cc1ccc(NC(=O)C(O)(CS(=O)(=O)c2ccc(Cl)cc2)c2ccc(Cl)cc2)cc1Cl (centres unmarked) [Example 18, N-(3-chloro-4-cyanophenyl)-3-[(4-chlorobenzene)sulfonyl]-2-(4-chlorophenyl)-2-hydroxypropanamide] | 7 | 1 | 6 | 27
N#Cc1ccc(S(=O)(=O)CC(O)(C(=O)Nc2ccc([N+](=O)[O-])c(Cl)c2)c2ccc(C(F)(F)F)cc2)cc1F (centres unmarked) [Example 19, N-(3-chloro-4-nitrophenyl)-3-[(4-cyano,3-fluorobenzene)sulfonyl]-2-hydroxy-2-[4-(trifluoromethyl)phenyl]propanamide] | 11 | 1 | 2 | 9
N#Cc1ccc(NC(=O)C(O)(CS(=O)(=O)c2ccc(F)cc2)c2ccc(C(F)(F)F)cc2)cc1C(F)(F)F (centres unmarked) [Example 21, N-(4-cyano-3-(trifluoromethyl)phenyl)-3-[(4-fluorobenzene)sulfonyl]-2-hydroxy-2-[4-(trifluoromethyl)phenyl]propanamide] | 24 | 1 | 4 | 3
CCS(=O)(=O)CC(O)(C(=O)Nc1ccc(C#N)c(Cl)c1)c1ccc(OC)c(F)c1 (centres unmarked) [Example 25, N-(3-chloro-4-cyanophenyl)-2-((3-fluoro-4-methoxy)phenyl)-3-(ethanesulfonyl)-2-hydroxypropanamide] | 22 | 6 | 9 | 9
N#Cc1ccc(NC(=O)C(O)(CS(=O)(=O)Cc2ccc(Cl)cc2)c2ccc(Cl)cc2)cc1Cl (centres unmarked) [Example 27, N-[3-chloro-4-cyanophenyl]-3-{[(4-chlorophenyl)methane]sulfonyl}-2-hydroxy-2-[4-(chloro)phenyl]propanamide] | 14 | 1 | 1 | 6
COc1ccc(C(O)(CS(=O)(=O)Cc2ccc(F)cc2)C(=O)Nc2ccc(C#N)c(Cl)c2)cc1F (centres unmarked) [Example 32, N-(3-chloro-4-cyanophenyl)-2-(3-fluoro-4-methoxyphenyl)-3-{[(4-fluorophenyl)methane]sulfonyl}-2-hydroxypropanamide] | 24 | 2 | 2 | 3
N#Cc1ccc(NC(=O)C(O)(CS(=O)(=O)Cc2ccc(F)cc2)c2cccc(C(F)(F)F)c2)cc1Cl (centres unmarked) [Example 40, N-(3-chloro-4-cyanophenyl)-3-{[(4-fluorophenyl)methane]sulfonyl}-2-hydroxy-2-[3-(trifluoromethyl)phenyl]propanamide] | 22 | 2 | 1 | 2
